Literature values in paper PMC9817006 (Journal of psychopharmacology (Oxford, England), 2022).

How the values were obtained:
[1] = systemic administration; ref Rueter et al., 2006; cited from earlier work
C57BL/6J mice = conditions: low and high doses, ref Akinola et al., 2019; cited from earlier work
rats = conditions: ref Freitas et al., 2016; cited from earlier work

## c1cncc(OC[C@@H]2CCN2)c1 [A-85380]
[1]
  Antinociception and anti-allodynic activity (in words): showing efficacy in multiple in vivo assays of antinociception, and anti-allodynic activity after systemic administration

## CN1CCC[C@H]1c1cccnc1 [nicotine]
C57BL/6J mice
  Locomotor sensitization (in words): lack of locomotor sensitization

## dihydro-ß-erythroidine [DHßE]
rats
  Effect on 5IA-facilitated ICSS (in words): blocked
